Data taken from patent US20250176550A1, “HERBICIDE COMPOSITION OF URACIL COMPOUND CONTAINING CARBOXYLATE FRAGMENT AND THE USE THEREOF” (Jiangsu Flag Chemical Industry Co., Ltd., priority 2022, published 2025).

Legend:
Test in all cases: Indoor virulence and combined effect, greenhouse pot test, post-emergence stem and leaf spray, fresh weight inhibition
Assay type in all cases: in vivo
alopecurus japonicus = tested on: alopecurus japonicus
Outline: (§1)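 Weeds in greenhouse pots received a spray-tower treatment, either post-emergence at the 3–4 leaf (grasses) or 4–6 leaf (broadleaf) stage, or pre-emergence as a soil spray 24 h after sowing. Compounds were applied in acetone diluted with 0.1 wt% Tween-80 water, alone or mixed, in g/ha. Fresh weight inhibition was measured at 21 days, with synergy judged by Gowing expected efficacy (E−E0 >10%).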

digitaria sanguinalis = conditions: for Fresh weight suppression rate %, A single agent: Table 14
Outline: as §1

eleusine indica = tested on: eleusine indica
Outline: as §1

lolium multiflorum = tested on: lolium multiflorum
Outline: as §1

echinochloa crusgalli = conditions: for Fresh weight suppression rate %, A single dose: Table 22
Outline: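 Greenhouse potted weeds sprayed post-emergence on stem and leaf at 3–4 leaf stage, with A and B alone or mixed; acetone solutions diluted in 0.1 wt% Tween-80, solvent-emulsifier water as blank.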

Structure (SMILES): CCOC(=O)C(C)(C)OC(=O)c1cc(-n2c(=O)cc(C(F)(F)F)n(C)c2=O)c(F)cc1Cl [Compound A-250]
- Fresh weight inhibition rate %, A single agent (alopecurus japonicus; Table 7, 15 g a.i./ha, post-emergence, 21 days after treatment): 39%
- Fresh weight inhibition rate %, A single agent (alopecurus japonicus; Table 7, 20 g a.i./ha, post-emergence, 21 days after treatment): 49.17%
- Fresh weight inhibition rate %, A single agent (alopecurus japonicus; Table 7, 25 g a.i./ha, post-emergence, 21 days after treatment): 55.39%
- Fresh weight inhibition rate %, A single agent (digitaria sanguinalis; Table 29, A 15 g a.i./ha): 54.46%
- Fresh weight inhibition rate %, A single agent (digitaria sanguinalis; Table 29, A 20 g a.i./ha): 61.09%
- Fresh weight inhibition rate %, A single agent (digitaria sanguinalis; Table 29, A 25 g a.i./ha): 65.86%
- Fresh weight inhibition rate %, A single agent (digitaria sanguinalis; Table 29, A 30 g a.i./ha): 71.11%
- Fresh weight inhibition rate %, A single agent (digitaria sanguinalis; Table 31, A 15 g a.i./ha): 54.46%
- Fresh weight inhibition rate %, A single agent (digitaria sanguinalis; Table 31, A 20 g a.i./ha): 61.09%
- Fresh weight inhibition rate %, A single agent (digitaria sanguinalis; Table 31, A 25 g a.i./ha): 65.86%
- Fresh weight inhibition rate %, A single agent (eleusine indica; Table 30, A 10 g a.i./ha): 43.34%
- Fresh weight inhibition rate %, A single agent (eleusine indica; Table 30, A 15 g a.i./ha): 55.00%
- Fresh weight inhibition rate %, A single agent (eleusine indica; Table 30, A 20 g a.i./ha): 68.03%
- Fresh weight inhibition rate %, A single agent (eleusine indica; Table 30, A 25 g a.i./ha): 70.36%
- Fresh weight inhibition rate %, A single agent (eleusine indica; Table 30, A 30 g a.i./ha): 75.35%
- Fresh weight inhibition rate %, A single agent (lolium multiflorum; Table 34, A 15 g a.i./ha): 55.00%
- Fresh weight inhibition rate %, A single agent (lolium multiflorum; Table 34, A 20 g a.i./ha): 68.03%
- Fresh weight inhibition rate %, A single agent (lolium multiflorum; Table 34, A 25 g a.i./ha): 70.36%
- Fresh weight inhibition rate %, A single agent (lolium multiflorum; Table 34, A 30 g a.i./ha): 75.35%
- Fresh weight inhibition rate %, A single agent (lolium multiflorum; Table 38, A 10 g a.i./ha): 43.34%
- Fresh weight inhibition rate %, A single agent (lolium multiflorum; Table 38, A 15 g a.i./ha): 55.00%
- Fresh weight inhibition rate %, A single agent (lolium multiflorum; Table 38, A 20 g a.i./ha): 68.03%
- Fresh weight inhibition rate %, A single agent (echinochloa crusgalli; Table 2, 15 g a.i./ha, post-emergence, 21 days after treatment): 26.41%
- Fresh weight inhibition rate %, A single agent (echinochloa crusgalli; Table 2, 20 g a.i./ha, post-emergence, 21 days after treatment): 30.73%
- Fresh weight inhibition rate %, A single agent (echinochloa crusgalli; Table 3, 20 g a.i./ha, post-emergence, 21 days after treatment): 30.73%
- Fresh weight inhibition rate %, A single agent (echinochloa crusgalli; Table 3, 25 g a.i./ha, post-emergence, 21 days after treatment): 31.56%
- Fresh weight inhibition rate %, A single agent (echinochloa crusgalli; Table 4, 15 g a.i./ha, post-emergence, 21 days after treatment): 26.41%
- Fresh weight inhibition rate %, A single agent (echinochloa crusgalli; Table 4, 20 g a.i./ha, post-emergence, 21 days after treatment): 30.73%
- Fresh weight inhibition rate %, A single agent (echinochloa crusgalli; Table 4, 25 g a.i./ha, post-emergence, 21 days after treatment): 31.56%
- Fresh weight suppression rate %, A single dose (echinochloa crusgalli; A 10 g a.i./ha): 17.77%
- Fresh weight suppression rate %, A single dose (echinochloa crusgalli; A 15 g a.i./ha): 26.41%
- Fresh weight suppression rate %, A single dose (echinochloa crusgalli; A 20 g a.i./ha): 30.73%
- Fresh weight suppression rate %, A single dose (echinochloa crusgalli; A 25 g a.i./ha): 31.56%

Structure (SMILES): COCCOC(=O)C(C)(C)OC(=O)c1cc(-n2c(=O)cc(C(F)(F)F)n(C)c2=O)c(F)cc1Cl [Compound A-273]
- Fresh weight inhibition rate %, A single agent (alopecurus japonicus; Table 5, 15 g a.i./ha, post-emergence, 21 days after treatment): 44.57%
- Fresh weight inhibition rate %, A single agent (alopecurus japonicus; Table 5, 20 g a.i./ha, post-emergence, 21 days after treatment): 61.55%
- Fresh weight inhibition rate %, A single agent (alopecurus japonicus; Table 5, 25 g a.i./ha, post-emergence, 21 days after treatment): 72.42%
- Fresh weight inhibition rate %, A single agent (alopecurus japonicus; Table 25, A 15 g a.i./ha): 44.57%
- Fresh weight inhibition rate %, A single agent (alopecurus japonicus; Table 25, A 20 g a.i./ha): 61.55%
- Fresh weight inhibition rate %, A single agent (alopecurus japonicus; Table 25, A 25 g a.i./ha): 72.42%
- Fresh weight inhibition rate %, A single agent (alopecurus japonicus; Table 25, A 30 g a.i./ha): 86.91%
- Fresh weight inhibition rate %, A single agent (digitaria sanguinalis; Table 1, 10 g a.i./ha, post-emergence, 21 days after treatment): 45.50%
- Fresh weight inhibition rate %, A single agent (digitaria sanguinalis; Table 1, 12.5 g a.i./ha, post-emergence, 21 days after treatment): 55.30%
- Fresh weight inhibition rate %, A single agent (digitaria sanguinalis; Table 1, 20 g a.i./ha, post-emergence, 21 days after treatment): 60.47%
- Fresh weight inhibition rate %, A single agent (digitaria sanguinalis; Table 1, 25 g a.i./ha, post-emergence, 21 days after treatment): 62.48%
- Fresh weight inhibition rate %, A single agent (digitaria sanguinalis; Table 13, A 20 g a.i./ha): 60.47%
- Fresh weight inhibition rate %, A single agent (digitaria sanguinalis; Table 13, A 25 g a.i./ha): 62.48%
- Fresh weight inhibition rate %, A single agent (digitaria sanguinalis; Table 13, A 30 g a.i./ha): 63.97%
- Fresh weight suppression rate %, A single agent (digitaria sanguinalis; A 10 g a.i./ha): 31.16%
- Fresh weight suppression rate %, A single agent (digitaria sanguinalis; A 15 g a.i./ha): 59.30%
- Fresh weight suppression rate %, A single agent (digitaria sanguinalis; A 20 g a.i./ha): 60.47%
- Fresh weight suppression rate %, A single agent (digitaria sanguinalis; A 30 g a.i./ha): 65.40%
- Fresh weight inhibition rate %, A single agent (digitaria sanguinalis; Table 15, A 15 g a.i./ha): 59.3%
- Fresh weight inhibition rate %, A single agent (digitaria sanguinalis; Table 15, A 20 g a.i./ha): 60.47%
- Fresh weight inhibition rate %, A single agent (digitaria sanguinalis; Table 15, A 25 g a.i./ha): 62.48%
- Fresh weight inhibition rate %, A single agent (digitaria sanguinalis; Table 16, A 10 g a.i./ha): 9.55%
- Fresh weight inhibition rate %, A single agent (digitaria sanguinalis; Table 16, A 20 g a.i./ha): 45.07%
- Fresh weight inhibition rate %, A single agent (digitaria sanguinalis; Table 16, A 25 g a.i./ha): 58.81%
- Fresh weight inhibition rate %, A single agent (digitaria sanguinalis; Table 16, A 30 g a.i./ha): 60.30%
- Fresh weight inhibition rate %, A single agent (digitaria sanguinalis; Table 41, A 10 g a.i./ha): 45.50%
- Fresh weight inhibition rate %, A single agent (digitaria sanguinalis; Table 41, A 15 g a.i./ha): 59.30%
- Fresh weight inhibition rate %, A single agent (digitaria sanguinalis; Table 41, A 20 g a.i./ha): 60.47%
- Fresh weight inhibition rate %, A single agent (digitaria sanguinalis; Table 41, A 25 g a.i./ha): 62.48%
- Fresh weight inhibition rate %, A single agent (eleusine indica; Table 18, A 5 g a.i./ha): 34.65%
- Fresh weight inhibition rate %, A single agent (eleusine indica; Table 18, A 10 g a.i./ha): 43.34%
- Fresh weight inhibition rate %, A single agent (eleusine indica; Table 18, A 15 g a.i./ha): 55.00%
- Fresh weight inhibition rate %, A single agent (eleusine indica; Table 18, A 20 g a.i./ha): 68.03%
- Fresh weight inhibition rate %, A single agent (eleusine indica; Table 32, A 15 g a.i./ha): 55.00%
- Fresh weight inhibition rate %, A single agent (eleusine indica; Table 32, A 20 g a.i./ha): 68.03%
- Fresh weight inhibition rate %, A single agent (eleusine indica; Table 32, A 25 g a.i./ha): 70.36%
- Fresh weight inhibition rate %, A single agent (eleusine indica; Table 33, A 10 g a.i./ha): 43.34%
- Fresh weight inhibition rate %, A single agent (eleusine indica; Table 33, A 15 g a.i./ha): 55.00%
- Fresh weight inhibition rate %, A single agent (eleusine indica; Table 33, A 20 g a.i./ha): 68.03%
- Fresh weight inhibition rate %, A single agent (eleusine indica; Table 33, A 25 g a.i./ha): 70.36%
- Fresh weight inhibition rate %, A single agent (eleusine indica; Table 33, A 30 g a.i./ha): 75.35%
- Fresh weight inhibition rate %, A single agent (eleusine indica; Table 35, A 10 g a.i./ha): 43.34%
- Fresh weight inhibition rate %, A single agent (eleusine indica; Table 35, A 15 g a.i./ha): 55.00%
- Fresh weight inhibition rate %, A single agent (eleusine indica; Table 35, A 20 g a.i./ha): 68.03%
- Fresh weight inhibition rate %, A single agent (eleusine indica; Table 35, A 25 g a.i./ha): 70.36%
- Fresh weight inhibition rate %, A single agent (eleusine indica; Table 36, A 5 g a.i./ha): 34.65%
- Fresh weight inhibition rate %, A single agent (eleusine indica; Table 36, A 10 g a.i./ha): 43.34%
- Fresh weight inhibition rate %, A single agent (eleusine indica; Table 36, A 15 g a.i./ha): 55.00%
- Fresh weight inhibition rate %, A single agent (eleusine indica; Table 36, A 20 g a.i./ha): 68.03%
- Fresh weight inhibition rate %, A single agent (eleusine indica; Table 36, A 25 g a.i./ha): 70.36%
- Fresh weight inhibition rate %, A single agent (lolium multiflorum; Table 19, A 5 g a.i./ha): 22.25%
- Fresh weight inhibition rate %, A single agent (lolium multiflorum; Table 19, A 10 g a.i./ha): 50.48%
- Fresh weight inhibition rate %, A single agent (lolium multiflorum; Table 19, A 15 g a.i./ha): 55.50%
- Fresh weight inhibition rate %, A single agent (lolium multiflorum; Table 19, A 20 g a.i./ha): 60.05%
- Fresh weight inhibition rate %, A single agent (lolium multiflorum; Table 20, A 5 g a.i./ha): 22.25%
- Fresh weight inhibition rate %, A single agent (lolium multiflorum; Table 20, A 10 g a.i./ha): 50.48%
- Fresh weight inhibition rate %, A single agent (lolium multiflorum; Table 20, A 15 g a.i./ha): 55.50%
- Fresh weight inhibition rate %, A single agent (lolium multiflorum; Table 20, A 20 g a.i./ha): 60.05%
- Fresh weight inhibition rate %, A single agent (lolium multiflorum; Table 27, A 15 g a.i./ha): 55.5%
- Fresh weight inhibition rate %, A single agent (lolium multiflorum; Table 27, A 20 g a.i./ha): 60.05%
- Fresh weight inhibition rate %, A single agent (lolium multiflorum; Table 27, A 25 g a.i./ha): 77.30%
- Fresh weight inhibition rate %, A single agent (echinochloa crusgalli; Table 17, 15 g a.i./ha, post-emergence, 21 days after treatment): 30.04%
- Fresh weight inhibition rate %, A single agent (echinochloa crusgalli; Table 17, 20 g a.i./ha, post-emergence, 21 days after treatment): 21.43%
- Fresh weight inhibition rate %, A single agent (echinochloa crusgalli; Table 17, 25 g a.i./ha, post-emergence, 21 days after treatment): 19.41%
- Fresh weight inhibition rate %, A single agent (echinochloa crusgalli; Table 37, A 10 g a.i./ha): 19.41%
- Fresh weight inhibition rate %, A single agent (echinochloa crusgalli; Table 37, A 15 g a.i./ha): 21.43%
- Fresh weight inhibition rate %, A single agent (echinochloa crusgalli; Table 37, A 20 g a.i./ha): 30.04%
- Fresh weight inhibition rate %, A single agent (echinochloa crusgalli; Table 37, A 25 g a.i./ha): 38.28%
- Fresh weight inhibition rate %, A single agent (echinochloa crusgalli; Table 44, A 10 g a.i./ha): 19.41%
- Fresh weight inhibition rate %, A single agent (echinochloa crusgalli; Table 44, A 15 g a.i./ha): 21.43%
- Fresh weight inhibition rate %, A single agent (echinochloa crusgalli; Table 44, A 20 g a.i./ha): 30.04%
- Fresh weight inhibition rate %, A single agent (echinochloa crusgalli; Table 44, A 25 g a.i./ha): 38.28%
